Earlier results in US11052155B2, “Conjugates of CC-1065 analogs and bifunctional linkers” (priority 2010, dated 2021).

Conditions: in vivo

Compound: COc1c(O)c2c(c3cc(C(=O)N4CCc5c4c(O)c(OC)c4[nH]c(C(=O)N6CC7CC78C6=CC(=O)c6[nH]cc(C)c68)cc54)[nH]c13)CCN2C(N)=O (stereo not shown) [CC-1065]
- hepatotoxicity: serious delayed hepatotoxicity
